Values joined by “and” are separate entries in the source; they are usually repeats but may differ in a detail not shown here. Equal values may be shown once. One block for each compound: values may come before it.
Key:
[1] = tested on: testosterone synthesis; assay: Study A: single dose study in castrate males with prostate cancer, serum hormone levels; assay type: in vivo, human
Method: Significant suppression was defined as either testosterone <0.14 nmol l^−1 in individual patients with a pretreatment value of <0.6 nmol l^−1 or a ⩾75% reduction in individual patients with a pretreatment value of ⩾0.6 nmol l^−1.
This was a single-centre, open-label, phase one, single-dose study in which sequential cohorts of three medically or surgically castrate patients were to receive treatment at five dose levels: starting at 10 mg and increasing to 30, 100, 200 and 500 mg. […] A confirmatory testosterone level of between 0.2 and 2.0 nmol l^−1 was also required.
(§1) Serum samples for endocrine analysis were obtained at 0, 2, 4, 8 and 24 h on a single day in the week prior to treatment commencement and then on Days 1, 2, 3, 4 and 7. As the duration of testosterone suppression was longer than originally anticipated, additional samples were added on Days 10, 14 and 21. The serum samples were analysed for testosterone, cortisol, 17 α-hydroxyprogesterone (17HP), androstenedione, LH and follicle-stimulating hormone (FSH) using commercially available kits. However, the DPC Coat-a-count kit for testosterone was sensitised using a larger volume of sample/standard and extension of the standard curve. […] All endocrine analyses were conducted by radioimmunoassay except for LH and FSH, which were by enzyme immunoassay.

[2] = tested on: cortisol synthesis; assay: Short Synacthen test in Study C; assay type: in vivo, human
Method: The schedule sampling differed slightly with samples removed at 0930 and 1730 on the day of treatment and thereafter in the morning on Days 2, 3, 4, 7, 8, 9, 10, 11, 14, 21 and 28. In Study C, a short Synacthen test was also performed prior to therapy and again around Day 11.

[3] = set-up: method as in Barrie et al, 1994; Dowsett et al, 1988; conditions: rodent model, intraperitoneal administration; ref Barrie et al, 1994; Dowsett et al, 1988; cited from earlier work
[4] = Safety and tolerability in the three phase one trials; assay type: in vivo, human
Method: Prior to the first dose of therapy a complete history, physical examination and assessment of performance status was performed on all patients. Full-blood count, electrolytes and creatinine, liver function, urinanalysis, electrocardiograph and chest X-ray were obtained from all patients. The ECG was repeated 6 h after dosing. On the day of therapy heart rate, blood pressure and temperature were recorded every 4 h and then daily at the time of blood sampling. Thereafter, full-blood count, electrolytes, creatinine and liver function were re-evaluated on Days 2 and 7. Toxicity was recorded using the NCI-CTG Expanded Common Toxicity Criteria V1.

[5] = tested on: testosterone synthesis; assay: Study C: multiple dose study (Days 1–12) in noncastrate males with prostate cancer, serum hormone levels; assay type: in vivo, human
Method: If this level of suppression was achieved, then it was planned to escalate the doses still higher to establish whether further suppression of testosterone was possible. […] This was a three-centre, open-label, phase one, multidose study in which sequential cohorts of three noncastrate patients were to receive treatment with abiraterone daily for 12 days. […] The starting dose of 500 mg was based upon the data from the single-dose studies. It was planned that a dose level would be expanded to six patients if any patient experienced toxicity ⩾ Grade III or if there was a significant suppression of serum cortisol in one patient (defined as per Study B above). All patients were followed for 28 days for any sign of toxicity. […] The schedule sampling differed slightly with samples removed at 0930 and 1730 on the day of treatment and thereafter in the morning on Days 2, 3, 4, 7, 8, 9, 10, 11, 14, 21 and 28. In Study C, a short […] test was also performed prior to therapy and again around Day 11.

[6] = tested on: testosterone synthesis; assay: Study B: single dose study in noncastrate males with prostate cancer, serum hormone levels; assay type: in vivo, human
Method: This was a single dose study in noncastrate males (testosterone level ⩾9.0 nmol l^−1) to determine the dose of abiraterone acetate that was sufficient to cause suppression of testosterone synthesis to castrate levels (⩽2.0 nmol l^−1).
This was a single-centre, open-label, phase one, single-dose study in which sequential cohorts of three noncastrate patients were to be treated at four dose levels: 200, 500, 650 and 800 mg. The starting dose of 200 mg was chosen when the results of study A were available.
All patients were required to have a normal testosterone level prior to study entry (i.e. ⩾9.0 nmol l^−1) as well as normal gonadotrophin levels (Luteinising Hormone (LH) ⩽13 IU l^−1).
as §1

[7] = Pharmacokinetics in patient plasma (LC-MS); assay type: in vivo, human; conditions: for Mean AUC: across all three studies
Method: Sample extracts were analysed by a fully validated liquid chromatography mass spectrometry method. The instrument consisted of Wisp Model 717 autosampler including a Model 600MS system controller with a quaternary U6K LC pump. A Finnigan MAT TSQ 700 triple quadrupole mass spectrometer was used as the detection system, together with Finnigan MAT ICIS and ICL software for data capture and processing (ThermoQuest Ltd, San Jose, CA, USA). The separation of analytes was performed on a Supelcosil LC-ABZ (5 μm, 250 × 4.6 mm) analytical column protected by a guard column (Supelco, Bellefonte, PA, USA). The mobile phase consisted of 570 ml of 20 mM ammonium acetate solution, 100 ml tetrahydrofuran and 1330 ml acetonitrile and was delivered at a flow rate of 1 ml min^−1 throughout the system. Column eluant was subjected to electrospray ionisation and monitored by selected ion monitoring (SIM) of protonated pseudo-molecular ions of authentic standards of abiraterone acetate and abiraterone, and GP488 (an analogue of abiraterone used as internal standard). For SIM, the scan width was 0.25 and the total scan time was 2.99 s. Also, heated capillary temperature=250°C, spray voltage=4.5 kV, collision offset=−49.9 V and electron multiplier voltage=1200 eV. Samples were extracted as follows: 50 μl of acetonitrile and 40 μl of 50 μM GP488 internal standard were added to 500 μl of patient plasma. […] The dried residue was reconstituted by vortexing in 150 μl of acetonitrile and transferred into autosampler vials. Aliquots (100 μl) of these samples were injected onto the LC column. […] A comprehensive PK profile (Cmax, Tmax, T1/2α T1/2 and Kabs) was determined for each patient. Pharmacokinetic parameters were evaluated using WinNonLin Software® and were conducted at The Institute of Cancer Research (Sutton). Blood was sampled for analysis of abiraterone concentration prior to drug administration and at the following times on Day 1: 30 min, 1, 2, 4, 6, 8 and 12 h. In the multidose study, samples were also drawn prior to treatment on Days 2, 3, 4, 7, 8, 9, 10, 11 and 14 with additional samples on Days 21 and 28. Samples (7 ml) were collected into vacutainer tubes (BD, Rutherford, NJ, USA) containing EDTA and immediately centrifuged to separate the plasma. At least 2 ml of plasma was transferred into polypropylene tubes (NUNC) and frozen at –20° until analysis.

[8] = tested on: 17α hydroxylation; set-up: method as in Barrie et al, 1994; Dowsett et al, 1988; conditions: preclinical studies, correlative evidence of inhibition of 17α hydroxylation; ref Barrie et al, 1994; Dowsett et al, 1988; cited from earlier work
[9] = target: 17α-hydroxylase/C17,20-lyase; set-up: method as in Barrie et al, 1997; Potter et al, 1995; conditions: inhibition of the 17α-hydroxylase/C17,20-lyase enzyme; ref Barrie et al, 1997; Potter et al, 1995; read-out: Kiapp; cited from earlier work
[10] = 500 mg daily Days 1–12, noncastrate patients
[11] = single oral dose 500 mg, noncastrate patients

response to Synacthen ([2]; 500 mg daily, all three patients, by Day 11): abnormal response | mean change in cortisol in response to Synacthen ([2]; 500 mg daily, by Day 11, baseline 294.3 nmol l^−1): 42 nmol/L | mean change in cortisol in response to Synacthen (percent) ([2]; 500 mg daily, by Day 11, baseline +77%): +10% | cortisol response to the short Synacthen test ([2]; 800 mg daily, all three patients, Day 11): abnormal | mean change in cortisol levels in response to Synacthen ([2]; 800 mg daily, by Day 11, baseline 385 nmol l^−1): 65.3 nmol/L | mean change in cortisol levels in response to Synacthen (percent) ([2]; 800 mg daily, by Day 11, baseline 120%): 23% | serum cortisol levels [5, 10]: remained within normal limits | fall of evening cortisol from baseline evening cortisol ([5]; multidose study, evening of Day 1, three patients): 60% and 71% and 69% | change in cortisol level ([6]; single oral dose, noncastrate patients): No change
Compound: CC(=O)O[C@H]1CC[C@@]2(C)C(=CC[C@@H]3[C@@H]2CC[C@]2(C)C(c4cccnc4)=CC[C@@H]32)C1 [abiraterone acetate]
patients with suppression of testosterone levels to <0.14 nmol l^−1 ([1]; single dose of 500 mg, castrate males): four out of six | deacetylation [3]: rapid deacetylation | grade three or four toxic events ([4]; all three trials): no grade three or four toxic events | resting heart rate or blood pressure ([4]; all three trials): No alteration | serious adverse events ([4]; all three trials): no serious adverse events attributable to treatment | tolerability ([4]; all three trials): very well tolerated | haematologic or biochemical effects ([4]; any dose level or schedule evaluated): No haematologic or biochemical effects | systemic effects reported by individual patients ([4]; no relation to dose or schedule apparent): Headache, hot flushes, a mild increase in abdominal and testicular pain, and a transient depression in mood (all grade II) | testosterone level reached ([5]; 500 mg daily Days 1–12, all three noncastrate patients): ≤ 2.0 nmol/L | duration of substantial testosterone suppression [5, 10]: up to 9 days | time of maximal testosterone suppression [5, 10]: 1 to 3 days | target testosterone level of ⩽0.7 nmol l^−1 ([5]; 500 mg daily Days 1–12, three noncastrate patients): did not reach the target level | day on which target testosterone suppression (⩽0.7 nmol l^−1) was obtained ([5]; 800 mg daily Days 1–12, first patient): 1 days | testosterone level ([5]; 800 mg daily, final patient, by Day 2): 1.7 nmol/L | rise in LH ([5]; 800 mg daily, final patient, from Day 3): two-fold rise | testosterone level ([5]; 800 mg daily, final patient, from Day 4): > 2.0 nmol/L | testosterone levels for the duration of treatment ([5]; 800 mg daily, first patient): ≤ 2.0 nmol/L | increase in LH ([5]; 800 mg daily, first patient, from Day 3): three-fold increase | duration of target testosterone suppression ([5]; 800 mg daily, first patient, then reversed with rising LH): 3 days | day on which target testosterone suppression (⩽0.7 nmol l^−1) was reached ([5]; 800 mg daily, second patient): 4 days | testosterone level ([5]; 800 mg daily, second patient, Day 7, otherwise below target level): 0.77 nmol/L | increase of Luteinising Hormone (LH) levels ([5]; 800 mg days 1–12, two out of three patients, overcame suppression within 3 days): two- to three-fold | effect on FSH levels ([5]; 800 mg, repeat dose): no effect | dose required to maintain testosterone suppression to target levels ([5]; repeat dose studies, noncastrate males): at least 800 mg | LH levels ([6]; single oral dose 200 mg, noncastrate): did not alter | level of testosterone relative to baseline ([6]; single oral dose 500 mg, noncastrate patients, Day 3, each case): less than 50% | saturation of drug absorption ([7]; at the dose levels studied, all three studies combined): no evidence of saturation of drug absorption | weight of the ventral prostate [8]: reduced weight of the ventral prostate

serum cortisol level ([1]; one patient at 500 mg, Day 1, baseline 409 nmol l^−1, felt inconsistent with suppression due to drug): 81 nmol/L | plasma levels of abiraterone ([7]; all doses greater than or equal to 200 mg): Detectable levels | Mean AUC ([7]; dose 200 mg): 0.31 µM·h | Mean AUC ([7]; dose 500 mg): 1.22 µM·h | Mean AUC ([7]; dose 800 mg): 5.6 µM·h
Compound: C[C@]12CC[C@H](O)CC1=CC[C@@H]1[C@@H]2CC[C@]2(C)C(c3cccnc3)=CC[C@@H]12 [abiraterone, 17-(3-pyridyl)androsta-5,16-dien-3β-ol]
reduction in testosterone ([1]; single oral dose 200 mg, one castrate patient, within the first 24 h): 75% | levels of 17-hydroxyprogesterone ([1]; single oral dose 500 mg, castrate males): no corresponding reduction | mean androstenedione levels ([1]; single oral dose 500 mg, castrate males, around Day 2): reduction in mean androstenedione levels | patients with reduction in testosterone to the target level ([1]; single oral dose 500 mg, first cohort of three castrate patients, target <0.14 nmol l^−1 or ⩾75% reduction): all three patients | patients with target testosterone suppression ([1]; single oral dose 500 mg, three additional castrate patients): one of these patients | days over which testosterone suppression was sustained ([1]; single oral dose 500 mg, two of the three castrate patients, post-therapy): 2 to 5 days | effect on testosterone ([1]; single oral dose 10, 30 and 100 mg, castrate males): no consistent effect | Ki [9]: 0.5 nM | testosterone suppression ([6]; single oral dose 200 mg, first noncastrate patient): No testosterone suppression | reduction in testosterone level from baseline ([6]; single oral dose 500 mg, all three noncastrate patients): more than 50% | recovery of LH to pretreatment levels [6, 11]: ≤ 10 days | recovery of testosterone to pretreatment levels after nadir [6, 11]: 6 to 9 days | time of testosterone nadir [6, 11]: second day after therapy | rise in LH levels ([6]; single oral dose 500 mg, noncastrate patients, maximal on Day 3): 47–75%
